Molecules are shown by their SMILES.

The test has as its target T1, L-alanine dehydrogenase (A.D) (Bacillus subtilis, UniProt Q08352).
T1 sequence (Q08352 1-378): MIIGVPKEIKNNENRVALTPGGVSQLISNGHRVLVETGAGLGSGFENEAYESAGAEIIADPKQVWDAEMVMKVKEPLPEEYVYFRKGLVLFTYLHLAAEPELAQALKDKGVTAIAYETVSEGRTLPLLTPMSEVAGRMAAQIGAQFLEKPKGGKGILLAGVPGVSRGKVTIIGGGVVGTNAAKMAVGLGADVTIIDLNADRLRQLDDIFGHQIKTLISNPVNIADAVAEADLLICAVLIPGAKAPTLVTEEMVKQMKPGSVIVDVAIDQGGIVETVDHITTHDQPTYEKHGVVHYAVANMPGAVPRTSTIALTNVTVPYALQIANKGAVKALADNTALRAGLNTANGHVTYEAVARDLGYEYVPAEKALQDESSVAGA
In words: Relative activity of substrate with L-alanine dehydrogenase. It is filed as biochemical. Conditions: relative to L-alanine (100%). The text has this:
If L-alanine dehydrogenase (A.D) is used as the enzyme in a reaction system similar to that used for leucine dehydrogenase, a suitable substrate and its activity relative to L-alanine (100%) is […]

As to `N[C@@H](CO)C(=O)O` [L-serine], the “Relative Activity” value was determined as 5%.

(Values after patent US5804402A, “Reagent” (priority 1995, dated 1998).)
